# Measured values reported in article PMC8428256 (Journal of medicinal chemistry, 2021).
# How the values were obtained:
# WIL-FL F98D [1] = conditions: Figure S5
# WIL-FL F98D [2] = conditions: cited from earlier work
# [3] = biological target: WIL-FL* (fluorescein-labeled WIL-FL LC dimer) (Homo sapiens, UniProt P01721, form not given/K101C); assay: Proteolysis-coupled fluorescence polarization; format: biochemical; conditions: for potency (EC50) increase compared to 1: WIL-FL* EC50 ratio to compound 1
# Chain of WIL-FL* (fluorescein-labeled WIL-FL LC dimer) (Homo sapiens, UniProt P01721, form not given/K101C) (P01721 20-117 K101C, form open): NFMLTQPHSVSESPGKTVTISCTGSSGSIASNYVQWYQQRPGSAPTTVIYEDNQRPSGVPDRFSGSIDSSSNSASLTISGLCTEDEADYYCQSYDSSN
# plasma proteins = format: in vitro ADME, human or mouse; conditions: 2 μM in plasma, dialysis 4 h, 37 °C
# WIL-FL* T46L/F49Y = WIL-FL* T46L/F49Y (Homo sapiens, UniProt P01721, form not given/K101C/T66L); conditions: WIL-FL T46L/F49Y EC50
# Chain of WIL-FL* T46L/F49Y (P01721 20-117 T66L/K101C, form open): as the sequence (P01721 20-117 K101C, form open) above, with T47L counted along it
# [4] = tested on: WIL-FL* (fluorescein-labeled WIL-FL LC dimer); assay: Proteolysis-coupled fluorescence polarization; format: biochemical, human; conditions: assay not given; data in Tables S2-S6 of the supplement
# Chain of WIL-FL* (fluorescein-labeled WIL-FL LC dimer) (P01721 20-117 K101C, form open): as the sequence (P01721 20-117 K101C, form open) above
structure (smiles),measurement,setting,value
"Cc1c(CCN2CC3(CCN(c4nccn5ccnc45)CC3)NC2=O)c(=O)oc2cc(O[C@H](C)c3ccccc3)ccc12 [(R)-83, (R)-8-(imidazo[1,2-a]pyrazin-8-yl)-3-(2-(4-methyl-2-oxo-7-(1-phenylethoxy)-2H-chromen-3-yl)ethyl)-1,3,8-triazaspiro[4.5]decan-2-one]",proteinase K resistance provided to WIL-FL F98D,WIL-FL F98D [1],no appreciable proteinase K resistance
CCN(CC)c1ccc2c(C)cc(=O)oc2c1 [Compound 1],binding to LC with F98D mutation,WIL-FL F98D [2],obviates binding
"CCN(CC)c1ccc2c(C)c(CCOC(=O)NCC3CCCNC3)c(=O)oc2c1 (centres unmarked) [Compound 18, 2-(7-(diethylamino)-4-methyl-2-oxo-2H-chromen-3-yl)ethyl (piperidin-3-ylmethyl)carbamate]",potency (EC50) increase compared to 1,[3],≤ 8 fold
"CCN(CC)c1ccc2c(C)c(CCOC(=O)NCc3cccnc3)c(=O)oc2c1 [Compound 20, 2-(7-(diethylamino)-4-methyl-2-oxo-2H-chromen-3-yl)ethyl (pyridin-3-ylmethyl)carbamate]",potency (EC50) increase compared to 1,[3],≤ 8 fold
"CCN(CC)c1ccc2c(C)c(CCOC(=O)NCCc3cccnc3)c(=O)oc2c1 [Compound 21, 2-(7-(diethylamino)-4-methyl-2-oxo-2H-chromen-3-yl)ethyl (2-(pyridin-3-yl)ethyl)carbamate]",potency (EC50) increase compared to 1,[3],≤ 8 fold
"CCN(CC)c1ccc2c(C)c(CCOC(=O)N(C)CCc3cccnc3)c(=O)oc2c1 [Compound 22, 2-(7-(diethylamino)-4-methyl-2-oxo-2H-chromen-3-yl)ethyl methyl(2-(pyridin-3-yl)ethyl)carbamate]",reduced potency compared to the secondary carbamate 21,[3]; WIL-FL* EC50,70 fold
"CCN(CC)c1ccc2c(C)c(CCOC(=O)NCc3cccc(NC(C)=O)c3)c(=O)oc2c1 [Compound 23, 2-(7-(diethylamino)-4-methyl-2-oxo-2H-chromen-3-yl)ethyl (3-acetamidobenzyl)carbamate]",potency (EC50) increase compared to 1,[3],up to 22 fold
"CCN(CC)c1ccc2c(C)c(CCOC(=O)NCc3cccc(C(N)=O)c3)c(=O)oc2c1 [Compound 25, 2-(7-(diethylamino)-4-methyl-2-oxo-2H-chromen-3-yl)ethyl (3-carbamoylbenzyl)carbamate]",potency (EC50) increase compared to 1,[3],up to 22 fold
"CCN(CC)c1ccc2c(C)c(CCOC(=O)NCc3cccc(-c4c[nH]cn4)c3)c(=O)oc2c1 [Compound 26, 2-(7-(diethylamino)-4-methyl-2-oxo-2H-chromen-3-yl)ethyl (3-(1H-imidazol-4-yl)benzyl)carbamate]",potency (EC50) increase compared to 1,[3],42 fold
"CCN(CC)c1ccc2c(C)c(CCOC(=O)NCc3cccc(-c4ccc[nH]c4=O)c3)c(=O)oc2c1 [Compound 27, 2-(7-(diethylamino)-4-methyl-2-oxo-2H-chromen-3-yl)ethyl (3-(2-oxo-1,2-dihydropyridin-3-yl)benzyl)carbamate]",proteinase K resistance provided to WIL-FL F98D,WIL-FL F98D [1],no appreciable proteinase K resistance
"Cc1cc(=O)oc2cc(OCC(C)c3ccccc3)ccc12 (centres unmarked) [Compound 57, 4-methyl-7-(2-phenylpropoxy)-2H-chromen-2-one]",plasma protein binding (in words),plasma proteins,very high plasma protein binding
same,potency increase relative to 2,WIL-FL* T46L/F49Y,9 fold
"Cc1c(CN2CCOCC2)c(=O)oc2cc(OC(C)c3ccccc3)ccc12 (centres unmarked) [Compound 62, 4-methyl-3-(morpholinomethyl)-7-(1-phenylethoxy)-2H-chromen-2-one]",stabilizer potency (qualitative statement in text),[4],slightly increased their potency
"Cc1c(CN2CCOCC2)c(=O)oc2cc(OCC(C)c3ccccc3)ccc12 (centres unmarked) [Compound 63, 4-methyl-3-(morpholinomethyl)-7-(2-phenylpropoxy)-2H-chromen-2-one]",stabilizer potency (qualitative statement in text),[4],slightly increased their potency
